Measured values: US20040082585A1, “Prodrugs of substituted polycyclic compounds useful for selective inhibition of the coagulation cascade” (Pharmacia Corporation, priority 2001, published 2004)

Columns and labels:
[1] = Bioavailability and prodrug conversion in male rats; type: in vivo; conditions: Crl:CD(SD)BR, rat, blood, fasted, oral 10 mg free base of active moiety per kg, IV 1 mg free base/kg, LC-MS/MS, read-out: BA (bioavailability of prodrug after oral adminstration)
Protocol: Healthy male rats [Crl:CD(SD)BR] were obtained from Charles River Breeding Laboratory (Canada). […] The animals weighed 250 to 320 g and were individually identified by labeling on each metabolism cage. The rats were housed in individual metabolism cages during dosing and sample collections. The animals were acclimated to a diet of Purina Rodent Chow #5002 (Ralston Purina, St. Louis, Mo.) for at least 5 days and were fasted for 15-20 hours prior to the administration of the compound. Food was available from 4 hours after dose administration and ad libitum throughout the remainder of the study.
Each animal received the prodrug orally at an equivalent dose of 10 mg of free base of active moiety per kg of body weight or active moiety orally at an equivalent dose of 10 mg equivalent free base per kg body weight. For intravenous (IV) study, the animals received 1 mg free base/kg body weight. Sufficient amount of the test article was dissolved in appropriate vehicle (See table below) such that the final concentration of dose solution was 2.0 mg free base/mL and 0.5 mg free base/mL for oral and IV doses, respectively. The dose volume was 5 mL/kg and 2 mL/kg for oral and IV doses, respectively
Blood samples were collected from the jugular vein at specified time intervals. Concentrations of test article and/or prodrug were analyzed using a LC-MS/MS procedure.
Model independent pharmacokinetic parameters (Cmax, Tmax, AUC, T1/2, CL, Vss) were obtained using Watson computer program. The bioavailability (BA) was calculated as follows: [formula]
The percentages of conversion of prodrug to active moiety was calculated using the following equation: [formula]
“AUC” represents area under the curve.

[2] = Metabolic stability assay, hepatic S9 fraction incubation (rat); type: in vitro ADME; conditions: rat liver S9 fraction 2.0 mg/mL protein, 1.0 μM substrate, 1.0 mM NADPH, 37° C., 30 minutes
Protocol: (§1) In order to determine the metabolic stability of each of the tested compounds, the following assay conditions were used: 100 mM-phosphate buffer, 1.0 mM NADPH, 3.3 mM magnesium chloride, 2.0 mg/mL protein from Hepatic S9 Fraction and 1.0 μM of substrate.
(§2) The assay was performed on a 96-well conical shaped plate with a volume of 200 μL, after addition of methanol. For each species, a set of samples was prepared as shown below (volumes are in μL).
(§3) The plate was sealed and incubated in a Thermal Mixer at 37° C. for 30 minutes at 400 rpm. 100 μL of methanol was added to each well and the plate was mixed for several minutes and then covered with an aluminum seal. Finally, the plate was centrifuged at 1000 rpm for 10 minutes.
(§4) The assay was analyzed using liquid chromatography and positive ion electrospray mass spectrometry. The chromatography column used was Agilent Zorbax SB-C18 (3.0×150 mm, 5 μm) with a flow rate of 0.5 mL/min.
(§5) Calculations were performed to determine the percent remaining, which is calculated by dividing the Peak Area Ratio of the analyte measured in the active protein versus the Peak Area Ratio of the analyte measured in the inactivated protein sample. The Peak Area Ratio is defined as the peak area of the analyte divided by the peak area of the internal standard. Analyte is defined as the substrate of a specific measurable metabolite.

[3] = Metabolic stability assay, hepatic S9 fraction incubation (human); type: in vitro ADME; conditions: human liver S9 fraction 2.0 mg/mL protein, 1.0 μM substrate, 1.0 mM NADPH, 37° C., 30 minutes
Protocol: as §1, §2, §3, §4, §5

Q: With `CC(C)Nc1ncc(-c2cc(N)cc(C(F)(F)F)c2)n(CC(=O)NCc2ccc(/C(N)=N/OC(=O)OC(C)C)cc2)c1=O` [Compound 20] as the molecule, how does the bioavailability [1] read?
A: Its bioavailability is 2%.

Q: Which results are given for `CC(C)Nc1ncc(-c2cc(N)cc(NC(=O)C(C)C)c2)n(CC(=O)NCc2ccc(C(=N)NO)cc2)c1=O` [Compound 18]?
A: S9 Rat (percent remaining) [2]: 36%; S9 Hum. (percent remaining) [3]: 5%

Q: For `CONC(=N)c1ccc(CNC(=O)Cn2c(-c3cc(N)cc(C(F)(F)F)c3)cnc(NC(C)C)c2=O)cc1` [Compound 4], which bioavailability [1] is on record?
A: Its bioavailability is 17%.

Q: And the “S9 Rat (percent remaining)” value [2]?
A: Its value is 0%.

Q: And the “S9 Hum. (percent remaining)” value [3]?
A: The value was 0%.

Q: Which bioavailability [1] does the source give for `COC(=O)c1cc(N)cc(-c2cnc(NC(C)C)c(=O)n2CC(=O)NCc2ccc(C(=N)NO)cc2)c1` [Compound 12] here?
A: Its bioavailability is 3%.

Q: For `CC(C)Nc1ncc(-c2cc(N)cc(C(F)(F)F)c2)n(CC(=O)NCCc2c(F)c(F)c3c(N)noc3c2F)c1=O` [Compound 15], which bioavailability [1] is on record?
A: The bioavailability was 4%.

Q: What about the “S9 Rat (percent remaining)” value [2] of the same molecule?
A: Its value is 25%.

Q: And the “S9 Hum. (percent remaining)” value [3]?
A: The value was 39%.

Q: What does the source list for `CCONC(=N)c1ccc(CNC(=O)Cn2c(-c3cc(N)cc(C(F)(F)F)c3)cnc(NC(C)C)c2=O)cc1` [Compound 8]?
A: bioavailability [1]: 20%; S9 Rat (percent remaining) [2]: 3%; S9 Hum. (percent remaining) [3]: 1%

Q: For `CC(C)Nc1ncc(-c2cc(N)cc(C(F)(F)F)c2)n(CC(=O)NCc2ccc3c(N)noc3c2)c1=O` [Compound 6], which bioavailability [1] is on record?
A: The bioavailability was 7%.

Q: Which “S9 Rat (percent remaining)” value [2] does the source give for `CC(C)Nc1ncc(-c2cc(N)cc(C(F)(F)F)c2)n(CC(=O)NCc2ccc(C3=NOC(C)(c4ccccc4)N3)cc2)c1=O` (stereo not shown) [Compound 25] here?
A: The value was 13%.

Q: What about the “S9 Hum. (percent remaining)” value [3] of the same molecule?
A: Its value is 3%.

Q: For `CC(C)Nc1ncc(-c2cc(N)cc(C(F)(F)F)c2)n(CC(=O)NCc2ccc(C(=N)NOCc3ccccc3)cc2)c1=O` [Compound 29], which “S9 Rat (percent remaining)” value [2] is on record?
A: Its value is 14%.

Q: What about the “S9 Hum. (percent remaining)” value [3] of the same molecule?
A: The value was 17%.

Q: For `COc1ccc(OC(=O)O/N=C(\N)c2ccc(CNC(=O)Cn3c(-c4cc(N)cc(C(F)(F)F)c4)cnc(NC(C)C)c3=O)cc2)cc1` [Compound 24], which “S9 Rat (percent remaining)” value [2] is on record?
A: The value was 1%.

Q: And the “S9 Hum. (percent remaining)” value [3]?
A: Its value is 1%.

Q: Which “S9 Rat (percent remaining)” value [2] does the source give for `CC(C)COC(=O)O/N=C(\N)c1ccc(CNC(=O)Cn2c(-c3cc(N)cc(C(F)(F)F)c3)cnc(NC(C)C)c2=O)cc1` [Compound 16] here?
A: Its value is 0%.

Q: And the “S9 Hum. (percent remaining)” value [3]?
A: Its value is 0%.

Q: Which results are given for `CCOC(=O)O/N=C(\N)c1ccc(CNC(=O)Cn2c(-c3cc(N)cc(C(F)(F)F)c3)cnc(NC(C)C)c2=O)cc1` [Compound 7]?
A: S9 Rat (percent remaining) [2]: 54%; S9 Hum. (percent remaining) [3]: 5%

Q: Which bioavailability [1] does the source give for `CC(C)Nc1ncc(-c2cc(N)cc(C(F)(F)F)c2)n(CC(=O)NCc2ccc3c(N)nc(=O)oc3c2)c1=O` [Compound 9] here?
A: The bioavailability was 1%.

Q: And the “S9 Rat (percent remaining)” value [2]?
A: The value was 0%.

Q: And the “S9 Hum. (percent remaining)” value [3]?
A: Its value is 0%.

Q: With `CC(C)Nc1ncc(-c2cc(N)cc(C(F)(F)F)c2)n(CC(=O)NCc2ccc(C3=NC(C)(C)ON3)cc2)c1=O` [Compound 5] as the molecule, how does the bioavailability [1] read?
A: Its bioavailability is 5%.

Q: What about the “S9 Rat (percent remaining)” value [2] of the same molecule?
A: Its value is 13%.

Q: What about the “S9 Hum. (percent remaining)” value [3] of the same molecule?
A: Its value is 0.50%.

Q: For `CC(C)Nc1ncc(-c2cc(N)cc(C(F)(F)F)c2)n(CC(=O)NCc2ccc(C(=N)NO)cc2)c1=O` [Compound 1], which “S9 Rat (percent remaining)” value [2] is on record?
A: Its value is 11%.

Q: What about the “S9 Hum. (percent remaining)” value [3] of the same molecule?
A: Its value is 2%.

Q: For `CCNC(=O)O/N=C(\N)c1ccc(CNC(=O)Cn2c(-c3cc(N)cc(C(F)(F)F)c3)cnc(NC(C)C)c2=O)cc1` [Compound 14], which bioavailability [1] is on record?
A: The bioavailability was 1%.

Q: And the “S9 Rat (percent remaining)” value [2]?
A: The value was 1%.

Q: What about the “S9 Hum. (percent remaining)” value [3] of the same molecule?
A: The value was 1%.

Q: For `CCCCOC(=O)O/N=C(\N)c1ccc(CNC(=O)Cn2c(-c3cc(N)cc(C(F)(F)F)c3)cnc(NC(C)C)c2=O)cc1` [Compound 11], which “S9 Rat (percent remaining)” value [2] is on record?
A: Its value is 44%.

Q: And the “S9 Hum. (percent remaining)” value [3]?
A: The value was 40%.
